These results are taken from ChEMBL document CHEMBL4813943, “Hybrids of Small-Molecule CD4 Mimics with Polyethylene Glycol Units as HIV Entry Inhibitors” (J Med Chem, 2021).

A short description of data set [1]: Cytotoxicity against human TZM-bl cells assessed as reduction in cell viability by Cell Titer-Glo assay. The class given is cell-based.
Data set [2] relates to Simian immunodeficiency virus. Briefly: Potentiation of KD-247-induced viral neutralizing activity against SHIV KS2661 infected in human TZM-bl cells assessed as fold reduction in KD-247 IC50 for viral neutralization at 10 uM measured after 48 hrs by luciferase assay relative to KD-247. Type of data set: functional.
Data set [3] addresses Envelope glycoprotein gp160 (Human immunodeficiency virus 1) (UniProt Q6QLK5). The data set is described as follows: Inhibition of HIV1 KP-5mvcR gp120 interaction with CD4 in human TZM-bl cells assessed as decrease in viral entry at 0.1 uM by […] assay relative to control. Type of data set: cell-based.
Data set [4] can be described thus: Stability of the compound assessed as drug degradation at 10 umol measured after 5 mins by HPLC analysis. The class given is physicochemical. The conditions noted are these: at 10 µmol, read-out: Drug degradation.
A short description of data set [5]: Stability of the compound assessed as drug degradation at 10 umol measured after 25 mins by HPLC analysis. The conditions noted are these: at 10 µmol, read-out: Drug degradation. Type of data set: physicochemical.
Data set [6] in a line: Stability of the compound assessed as drug degradation at 10 umol measured after 1 mins by HPLC analysis. Type of data set: physicochemical. The following applies: at 10 µmol, read-out: Drug degradation.
The nature of data set [7]: Cmax in rhesus monkey at 33.2 mg, iv measured upto 72 hrs by HPLC analysis. The conditions noted are these: in vivo. The class given is ADME, organism-based, Macaca mulatta. Also noted: route intravenous, dose 33.2 mg, time <=72.
A short description of data set [8]: Half life in rhesus monkey at 9 mg, IM measured upto 48.1 hrs by HPLC analysis. The class given is ADME, Macaca mulatta. The following applies: in vivo.
A short description of data set [9]: Half life in rhesus monkey at 18 mg, IM measured upto 48.1 hrs by HPLC analysis. The class given is ADME, Macaca mulatta. The following applies: in vivo.
Data set [10] in a line: Volume of distribution in rhesus monkey at 18 mg, IM measured upto 48.1 hrs by HPLC analysis. Type of data set: ADME, Macaca mulatta. The conditions noted are these: in vivo.
Data set [11] can be described thus: Acute toxicity in iv dosed rhesus monkey assessed as maximum tolerated dose. The following applies: in vivo. The class given is organism-based, Macaca mulatta.
Data set [12] can be described thus: Cmax in rhesus monkey at 9 mg, IM measured upto 48.1 hrs by HPLC analysis. Also noted: route intramuscular, dose 9 mg, time <=48.1. The conditions noted are these: in vivo. Type of data set: ADME, Macaca mulatta.
The nature of data set [13]: Toxicity in rhesus monkey assessed as increase in pulse rate at 33.2 mg, iv measured within 25 mins. The class given is organism-based, Macaca mulatta. The following applies: in vivo.
Data set [14] in a line: Cmax in rhesus monkey at 36 mg, IM measured upto 48.1 hrs by HPLC analysis. Type of data set: ADME, Macaca mulatta. The following applies: in vivo. Also noted: route intramuscular, dose 36 mg, time <=48.1.
Data set [15] can be described thus: Cmax in rhesus monkey at 18 mg, IM measured upto 48.1 hrs by HPLC analysis. The conditions noted are these: in vivo. The arrangement: route intramuscular, dose 18 mg, time <=48.1. The class given is ADME, Macaca mulatta.
Data set [16] in a line: Half life in rhesus monkey at 36 mg, IM measured upto 48.1 hrs by HPLC analysis. The class given is ADME, Macaca mulatta. The following applies: in vivo.
A short description of data set [17]: Volume of distribution in rhesus monkey at 33.2 mg, IV measured upto 72 hrs by HPLC analysis. The conditions noted are these: in vivo. Type of data set: ADME, Macaca mulatta.
Data set [18] in a line: Volume of distribution in rhesus monkey at 9 mg, IM measured upto 48.1 hrs by HPLC analysis. The class given is ADME, Macaca mulatta. The following applies: in vivo.
Data set [19] is described as follows: Half life in rhesus monkey at 33.2 mg, iv measured upto 72 hrs by HPLC analysis. Type of data set: ADME, organism-based, Macaca mulatta. The following applies: in vivo.
Data set [20] in a line: Volume of distribution in rhesus monkey at 36 mg, IM measured upto 48.1 hrs by HPLC analysis. The conditions noted are these: in vivo. Type of data set: ADME, Macaca mulatta.
Data set [21] in a line: Toxicity in rhesus monkey assessed as effect on body motion at 33.2 mg, iv measured within 25 mins. Type of data set: organism-based, Macaca mulatta. The following applies: in vivo.
A short description of data set [22]: Volume of distribution in rhesus monkey at 24 mg/kg, iv measured upto 6 hrs by HPLC analysis. The class given is ADME, organism-based, Macaca mulatta. The following applies: in vivo.
A short description of data set [23]: Half life in rhesus monkey at 24 mg/kg, iv measured upto 6 hrs by HPLC analysis. The class given is ADME, organism-based, Macaca mulatta. The following applies: in vivo.
The nature of data set [24]: Acute toxicity in rhesus monkey assessed as animal survival at 24 mg/kg, iv measured after 24 hrs. The class given is organism-based, Macaca mulatta. The conditions noted are these: in vivo.
The nature of data set [25]: Acute toxicity in rhesus monkey assessed as decrease in blood oxygen level at 24 mg/kg, iv measured within 15 mins. Type of data set: organism-based, Macaca mulatta. The conditions noted are these: in vivo, 0.25 h.
Data set [26] can be described thus: Acute toxicity in rhesus monkey assessed as effect on pulse rate at 24 mg/kg, iv measured after 24 hrs. The following applies: in vivo. Type of data set: organism-based, Macaca mulatta.
Data set [27] is described as follows: Initial drug concentration in rhesus monkey blood at 24 mg/kg, iv measured upto 6 hrs by HPLC analysis. The class given is ADME, organism-based, Macaca mulatta.
Data set [28] can be described thus: Acute toxicity in rhesus monkey assessed as increase in pulse rate at 24 mg/kg, iv measured within 15 mins. The class given is organism-based, Macaca mulatta. The following applies: in vivo, 0.25 h.
A short description of data set [29]: Acute toxicity in rhesus monkey assessed as effect on blood oxygen levels at 24 mg/kg, iv measured after 24 hrs. The class given is organism-based, Macaca mulatta. The following applies: in vivo.
Data set [30] can be described thus: Half life of the compound by HPLC analysis. The class given is physicochemical.

Envelope glycoprotein gp160 (Human immunodeficiency virus 1), sequence (Q6QLK5 1-814): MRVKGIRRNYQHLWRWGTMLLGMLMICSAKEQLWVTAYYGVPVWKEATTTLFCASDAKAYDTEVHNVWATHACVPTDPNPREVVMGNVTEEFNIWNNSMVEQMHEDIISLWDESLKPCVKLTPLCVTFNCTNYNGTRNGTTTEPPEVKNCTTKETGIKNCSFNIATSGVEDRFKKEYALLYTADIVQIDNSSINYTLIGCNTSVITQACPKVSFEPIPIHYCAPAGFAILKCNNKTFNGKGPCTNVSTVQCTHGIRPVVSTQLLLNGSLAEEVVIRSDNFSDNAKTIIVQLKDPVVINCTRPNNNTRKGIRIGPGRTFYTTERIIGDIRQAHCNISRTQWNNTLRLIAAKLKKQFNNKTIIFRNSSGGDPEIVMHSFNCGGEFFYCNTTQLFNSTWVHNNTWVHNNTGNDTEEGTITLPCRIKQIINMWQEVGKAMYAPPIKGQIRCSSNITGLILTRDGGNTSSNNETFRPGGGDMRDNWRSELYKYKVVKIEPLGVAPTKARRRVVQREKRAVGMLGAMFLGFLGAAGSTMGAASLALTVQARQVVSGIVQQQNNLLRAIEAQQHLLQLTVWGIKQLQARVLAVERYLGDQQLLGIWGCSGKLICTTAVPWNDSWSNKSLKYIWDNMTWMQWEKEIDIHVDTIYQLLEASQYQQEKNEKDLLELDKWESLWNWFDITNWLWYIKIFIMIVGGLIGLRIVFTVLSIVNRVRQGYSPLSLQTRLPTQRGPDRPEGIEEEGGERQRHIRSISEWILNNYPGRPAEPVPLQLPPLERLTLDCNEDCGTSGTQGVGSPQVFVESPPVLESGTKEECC

Take `N=C(N)NCCCCCCCCCCC(=O)NCCCC[C@H](NC(=N)N)C(=O)NCCN1CCC(NC(=O)C(=O)Nc2ccc(Cl)cc2)CC12CCCCC2` (some centres undefined): the CC50 in data set [1] came out at 15 µM.
On to `COCCOCCOCCOCCOCCOCCOCCOCCOCCOCCOCCOCCNC(=O)CCC(=O)N[C@@H](CCCNC(=N)N)C(=O)NCCN1CCC(NC(=O)C(=O)Nc2ccc(Cl)cc2)CC12CCCCC2` (some centres undefined) [listing 1 of 2 here], for which, in data set [2], the “fold change (FC)” value is reported as 20. Further, in data set [1], the CC50 is above 100 µM.
On to `COCCOCCOCCOCCOCCOCCOCCOCCOCCOCCOCCOCCNC(=O)CCC(=O)N[C@@H](CCCNC(=N)N)C(=O)NCCN1CCC(NC(=O)C(=O)Nc2ccc(Cl)cc2)CC12CCCCC2` (some centres undefined) [listing 2 of 2 here], for which, in data set [3], the inhibition was 50%.
As for `COCCOCCOCCOCCOCCNC(=O)CCC(=O)OC(CCCN)C(=O)NCCN1CCC(NC(=O)C(=O)Nc2ccc(Cl)cc2)CC12CCCCC2` (centres undefined), the CC50 in data set [1] is 81 µM.
As to `N=C(N)NCCCCCCCCCCC(=O)NCCN1CCC(NC(=O)C(=O)Nc2ccc(Cl)cc2)CC12CCCCC2` (centres undefined), the CC50 in data set [1] came out at 1.1 µM.
Turning to `N=C(N)NCCCC[C@H](NC(=N)N)C(=O)NCCN1CCC(NC(=O)C(=O)Nc2ccc(Cl)cc2)CC12CCCCC2` (some centres undefined), the CC50 in data set [1] amounted to 46 µM.
Same read-out and setting: with `CCCCCCCCCCCCCCCCNC(=O)CCC(=O)OC(CCCNC(=N)N)C(=O)NCCN1CCC(NC(=O)C(=O)Nc2ccc(Cl)cc2)CC12CCCCC2` (centres undefined) the figure was 17 µM.
In the case of `COCCOCCOCCOCCOCCNC(=O)CCC(=O)OC(CCCNC(=N)N)C(=O)NCCN1CCC(NC(=O)C(=O)Nc2ccc(Cl)cc2)CC12CCCCC2` (centres undefined) [listing 1 of 2 here], the degraded at 5 min, 10 umol in [4] was determined as 0%. In data set [5], the degraded at 25 min, 10 umol is 20%. For the same molecule, the degraded at 1 min, 10 umol in [6] is 0%.
For `COCCOCCOCCOCCOCCNC(=O)CCC(=O)OC(CCCNS(=O)(=O)c1ccc([N+](=O)[O-])cc1)C(=O)NCCN1CCC(NC(=O)C(=O)Nc2ccc(Cl)cc2)CC12CCCCC2` (centres undefined), in [1], the 50% cytotoxic concentration (CC50) worked out at 174 µM.
Take `CC1(C)CC(NC(=O)C(=O)Nc2ccc(Cl)cc2)CC(C)(C)N1`: the CC50 in data set [1] worked out at 132 µM.
For the molecule `COCCOCCOCCOCCOCCOCCOCCOCCOCCOCCOCCOCCNC(=O)CCC(=O)N[C@@H](CCCNC(=N)N)C(=O)NCCN1CCC(NC(=O)C(=O)Nc2ccc(Cl)cc2)CC12CCCCC2.O=C(O)C(F)(F)F.O=C(O)C(F)(F)F` (some centres undefined), the Cmax in data set [7] turned out to be 39.5 µM; in data set [12], 56.4 µM; in data set [14] it was 128 µM; in [15] it was 59.4 µM. Besides, the figures for the half-life in data set [8], in [9] and in data set [16] were 47.6 min, 58.9 min and 86.4 min, respectively. The Vd in [10] was 215 mL; in data set [17] it was 592 mL; in data set [18], 114 mL; in [20], 200 mL. Also, in [11], the MTD was 3.78 mg/kg. In addition, the Activity result in [13] and in data set [21] was “Toxic” each time. This molecule yielded a t1/2 in [19] of 107.4 min.
In the case of `COCCOCCOCCOCCOCCOCCOCCOCCOCCOCCOCCOCCOCCOCCOCCOCCOCCOCCOCCOCCOCCOCCOCCOCCNC(=O)CCC(=O)N[C@@H](CCCNC(=N)N)C(=O)NCCN1CCC(NC(=O)C(=O)Nc2ccc(Cl)cc2)CC12CCCCC2` (some centres undefined), in data set [3], the inhibition stood at 65%. Also, in data set [1], the CC50 was 40 µM.
Turning to `N=C(N)NCC(=O)NCCCC[C@H](NC(=N)N)C(=O)NCCN1CCC(NC(=O)C(=O)Nc2ccc(Cl)cc2)CC12CCCCC2` (some centres undefined), in data set [1], the CC50 came out at 42 µM.
For `N=C(N)NCCCCCCCC(=O)NCCCC[C@H](NC(=N)N)C(=O)NCCN1CCC(NC(=O)C(=O)Nc2ccc(Cl)cc2)CC12CCCCC2` (some centres undefined), the CC50 in data set [1] stood at 44 µM.
Turning to `N=C(N)NCCCCCCCC(=O)NCCN1CCC(NC(=O)C(=O)Nc2ccc(Cl)cc2)CC12CCCCC2` (centres undefined), the CC50 in data set [1] is above 300 µM.
In the case of `N=C(N)NCCCCC(=O)NCCN1CCC(NC(=O)C(=O)Nc2ccc(Cl)cc2)CC12CCCCC2` (centres undefined), the CC50 in data set [1] worked out at 65 µM.
`N=C(N)NCCCCC(=O)NCCN1CCC(NC(=O)C(=O)Nc2ccc(Cl)cc2)CC12CCCCC2.O=C(O)C(F)(F)F.O=C(O)C(F)(F)F` (centres undefined) yielded a Vd in [22] of 10.8 L. For the same molecule, in data set [23], the half-life worked out at 31 min. For the same molecule, the Activity result is “Non-Toxic” in data set [24]; “Toxic” in data set [25]; “Non-Toxic” in data set [26]; “Toxic” in data set [28]; “Non-Toxic” in data set [29]. In addition, the maximum tolerated dose (MTD) in [11] came to 24 mg/kg. The same molecule yielded a C0 at 6 h in data set [27] of 23.3 µM.
`CCCCCCCCCCCCCCCCNC(=O)CCC(=O)OC(CCCN)C(=O)NCCN1CCC(NC(=O)C(=O)Nc2ccc(Cl)cc2)CC12CCCCC2` (centres undefined): the CC50 in data set [1] was 5.7 µM.
Turning to `N=C(N)NCCCCC(=O)NCCCC[C@H](NC(=N)N)C(=O)NCCN1CCC(NC(=O)C(=O)Nc2ccc(Cl)cc2)CC12CCCCC2` (some centres undefined), the CC50 in data set [1] worked out at 62 µM.
Consider `COCCOCCOCCOCCOCCNC(=O)CCC(=O)N[C@@H](CCCNC(=N)N)C(=O)NCCN1CCC(NC(=O)C(=O)Nc2ccc(Cl)cc2)CC12CCCCC2` (some centres undefined), for which the CC50 in [1] was above 100 µM.
As to `COCCOCCOCCOCCOCCNC(=O)CCC(=O)OC(CCCNC(=N)N)C(=O)NCCN1CCC(NC(=O)C(=O)Nc2ccc(Cl)cc2)CC12CCCCC2` (centres undefined) [listing 2 of 2 here], in data set [1], the CC50 amounted to 109 µM. The half-life in [30] is 126 min.
Consider `CCCCCCCCCCCCCCCCNC(=O)CCC(=O)OC(CCCNS(=O)(=O)c1ccc([N+](=O)[O-])cc1)C(=O)NCCN1CCC(NC(=O)C(=O)Nc2ccc(Cl)cc2)CC12CCCCC2` (centres undefined), for which the CC50 in data set [1] is above 300 µM.
